Laboratory results taken from ChEMBL document CHEMBL1201862, “PubChem BioAssay data set” (2004).
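Growth conditions: 96-well plates. Treatment: test compound, 48 hours, 5 concentrations. Analysis: linear interpolation between bracketing concentrations; unreached endpoints set to highest concentration. GI50 = concentration required for 50% inhibition of growth.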 The source made the active and inactive calls. Rule as the data show it: active = GI50 up to about 1.1 µM and inactive = higher.

Key:
Test in all cases: NCI tumour cell line growth inhibition, 48 h
T47D = system: T47D
TK-10 = system: TK-10
EKVX = system: EKVX
OVCAR-4 = system: OVCAR-4
UACC-257 = system: UACC-257
MOLT-4 = system: MOLT-4
HOP-62 = system: HOP-62
SW-620 = system: SW-620
M14 = system: M14
IGROV-1 = system: IGROV-1
KM12 = system: KM12
OVCAR-5 = system: OVCAR-5
NCI-H226 = system: NCI-H226
SNB-19 = system: SNB-19
HCC 2998 = system: HCC 2998
A498 = system: A498
SF-295 = system: SF-295
CAKI-1 = system: CAKI-1
MCF7 = system: MCF7
NCI/ADR-RES = system: NCI/ADR-RES
SNB-75 = system: SNB-75
SN12C = system: SN12C
SF-268 = system: SF-268
HT-29 = system: HT-29
MDA-MB-231 = system: MDA-MB-231
SK-MEL-5 = system: SK-MEL-5
NCI-H23 = system: NCI-H23
HOP-92 = system: HOP-92
SK-MEL-2 = system: SK-MEL-2
MDA-N = system: MDA-N
SK-MEL-28 = system: SK-MEL-28
NCI-H460 = system: NCI-H460
SK-OV-3 = system: SK-OV-3
BT-549 = system: BT-549
LOX IMVI = system: LOX IMVI
DU-145 = system: DU-145
OVCAR-3 = system: OVCAR-3
HCT-15 = system: HCT-15
HCT-116 = system: HCT-116
HL-60 = system: HL-60
RPMI-8226 = system: RPMI-8226
U-251 = system: U-251
OVCAR-8 = system: OVCAR-8
SR = system: SR
ACHN = system: ACHN
PC-3 = system: PC-3
RXF 393 = system: RXF 393
CCRF-CEM = system: CCRF-CEM
UO-31 = system: UO-31
COLO 205 = system: COLO 205
MDA-MB-435 = system: MDA-MB-435
UACC-62 = system: UACC-62
K562 = system: K562
A549 = system: A549
SF-539 = system: SF-539

## COc1ccc2[nH]c(C(=O)N3CC(CCl)c4c3cc(N)c3ccccc43)cc2c1 (stereo not given)
T47D
  GI50: 10.1 nM (active)
TK-10
  GI50: < 10 nM (active)
EKVX
  GI50: < 10 nM (active)
OVCAR-4
  GI50: < 10 nM (active)
UACC-257
  GI50: 11.9 nM (active)
MOLT-4
  GI50: < 10 nM (active)
HOP-62
  GI50: < 10 nM (active)
SW-620
  GI50: < 10 nM (active)
M14
  GI50: < 10 nM (active)
IGROV-1
  GI50: < 10 nM (active)
KM12
  GI50: < 10 nM (active)
OVCAR-5
  GI50: < 10 nM (active)
NCI-H226
  GI50: < 13.3 nM (active)
SNB-19
  GI50: < 15.4 nM (active)
HCC 2998
  GI50: < 10 nM (active)
A498
  GI50: 11.6 nM (active)
SF-295
  GI50: < 10 nM (active)
CAKI-1
  GI50: < 10 nM (active)
MCF7
  GI50: < 10 nM (active)
NCI/ADR-RES
  GI50: < 10 nM (active)
SNB-75
  GI50: < 10 nM (active)
SN12C
  GI50: < 10 nM (active)
SF-268
  GI50: < 10 nM (active)
HT-29
  GI50: < 10 nM (active)
MDA-MB-231
  GI50: < 20.4 nM (active)
SK-MEL-5
  GI50: < 10 nM (active)
NCI-H23
  GI50: < 10 nM (active)
HOP-92
  GI50: < 18 nM (active)
SK-MEL-2
  GI50: 12.2 nM (active)
MDA-N
  GI50: 11.2 nM (active)
SK-MEL-28
  GI50: 14.2 nM (active)
NCI-H460
  GI50: < 10 nM (active)
SK-OV-3
  GI50: < 14 nM (active)
BT-549
  GI50: < 15.3 nM (active)
LOX IMVI
  GI50: < 10 nM (active)
DU-145
  GI50: < 10 nM (active)
OVCAR-3
  GI50: 13.9 nM (active)
HCT-15
  GI50: < 10 nM
HCT-116
  GI50: < 10 nM (active)
HL-60
  GI50: < 10 nM (active)
RPMI-8226
  GI50: 12.2 nM (active)
U-251
  GI50: < 10 nM (active)
OVCAR-8
  GI50: < 10 nM (active)
SR
  GI50: < 10 nM (active)
ACHN
  GI50: < 10 nM (active)
PC-3
  GI50: < 10 nM (active)
RXF 393
  GI50: < 10 nM (active)
CCRF-CEM
  GI50: < 10 nM (active)
UO-31
  GI50: < 10 nM (active)
COLO 205
  GI50: < 10.5 nM (active)
MDA-MB-435
  GI50: 11.8 nM (active)
UACC-62
  GI50: < 10 nM (active)
K562
  GI50: < 10 nM (active)
A549
  GI50: < 10 nM (active)
SF-539
  GI50: < 10 nM (active)
